Where a name gives a salt, the structure may show the parent alone.
Key:
Assay type in all cases: physicochemical
[1] = Relative humidity (RH) stress of solids, XRPD; conditions: for XRPD Pattern after RH stress: ambient, 21 d
Protocol: Relative Humidity (RH) Stress: Open vials containing solid samples were placed inside chambers containing saturated salt solutions along with a small amount of the undissolved salt. The chambers were sealed and allowed to stand at ambient temperature for several weeks. Samples were analyzed by X-ray powder diffraction (XRPD) immediately after removing the sample from the RH chamber. The RH values for these salt solutions were obtained from an ASTM standard. See a) “Preparation and Use of Relative Humidity Chambers” SSCI Method MTD 032.01 Mar. 3, 2003; and b) “Standard Practice for Maintaining Constant Relative Humidity by Means of Aqueous Solutions” ASTM Standard E 104-02 (2002).

[2] = Solubility estimates in different solvents; conditions: thermodynamic from solid, ambient temperature, visual estimate
Protocol: A weighed sample (typically about 20 mg) of Compound I form A was treated with aliquots of the test solvent at ambient temperature. The aliquot volumes were typically 250 μL. Periodically, the mixture was sonicated between additions to facilitate dissolution. Complete dissolution of the test material was determined by visual inspection. Solubilities were estimated from these experiments based on the total solvent used to provide complete dissolution. […] If dissolution occurred after the last aliquot was added then solubility is expressed as “greater than or equal to” (≧). The solubility values for Compound I (Table 4) have been rounded to the nearest whole number. The true equilibrium solubilities for the compound may be different than the values provided here because of the use of solvent aliquots that were too large or due to a slow rate of dissolution.

[3] = Thermal analysis (TGA/DSC), thermal stability
Protocol: Thermogravimetric analyses (TGA) were carried out on a TA Instruments 2950 thermogravimetric analyzer. The calibration standards were nickel and Alumel™. Samples were placed in an aluminum sample pan, inserted into the TG furnace, and accurately weighed. The samples were heated in a stream of nitrogen at a rate of 10° C./min. The temperature of the furnace was equilibrated at 25° C. prior to the analysis of the samples. The percent mass loss values provided in the tables are rounded to the nearest 0.1%.
Differential scanning calorimetry (DSC) analyses were carried out on a TA Instruments differential scanning calorimeter 2920. Accurately weighed samples were placed in either crimped pans, crimped pans with manual pinhole or uncrimped pans to allow for pressure release. Each sample was heated under nitrogen at a rate of 10° C./min to 350° C. Indium metal was used as the calibration standard. Temperatures are reported at the transition maxima and reported to one decimal place, and the integrated events are expressed in J/g and rounded to the nearest whole number.

[4] = Slurry interconversion studies in methanol; conditions: room temperature
Protocol: Slurry Experiments: Enough Compound I was added to a given solvent so that undissolved solids were present. The mixture was then agitated in a sealed vial at ambient temperature using either an orbital shaker or a rotating wheel. After several days the solids were isolated by vacuum filtration and allowed to dry at ambient temperature in the fume hood with the cap for the sample vial loosened.
In order to determine the relative stability of the polymorphs Compound I form A was slurried in separate experiments with roughly equal amounts of forms B, C and E in methanol at room temperature. After 12 days the solids were isolated and form A was recovered as the exclusive solid phase (Table 6). In addition to these experiments, slurries of forms B, C and D in the absence of other solid phases provided form A when slurried for 5 days in methanol at room temperature. […] It should be noted that the hydration states of these solid phases may be different for the different forms, which precludes an analysis of the true thermodynamic stability ordering through slurry experiments.

[5] = Moisture sorption/desorption analysis; conditions: for Weight Change: 25 C, Tables 2A, 2B (relative to weight at start of the event)
Protocol: Moisture sorption/desorption data were collected on a VTI SGA-100 Vapor Sorption Analyzer. Sorption and desorption data were collected over a range of 5% to 95% relative humidity (RH) at 10% RH intervals under a nitrogen purge. Sodium chloride (NaCl) and polyvinylpyrrolidone (PVP) were used as the calibration standards. Equilibrium criteria used for analysis were less than 0.0100% weight change in 5 minutes, with a maximum equilibration time of 180 minutes if the weight criterion was not met. The plotted data that contain the percent weight change values at various RH intervals are relative to the initial weight of the sample. The plotted data have not been corrected for the initial moisture content. However, the weight gain data provided in the tables for the various relative humidity ranges are calculated using the sample weight at the beginning of the particular RH event as the initial weight. In particular, the equilibration event wt. % change from initial wt. to 5% RH was calculated as [(wt at 5% RH−initial wt.)/initial wt.]*100; and the sorption event wt. % change from 5% RH to 95% RH was calculated as [(wt. at 95% RH−wt at 5% RH)/wt at 5% RH]*100; and the desorption event wt. % change from 95% RH to 5% RH was calculated as [(wt. at 5% RH−wt at 95% RH)/wt at 95% RH]*100. This type of analysis permits direct comparison of the experimental weight changes to the theoretical values predicted for the inter-conversion of anhydrates to hydrated forms.

Structure (SMILES): N#Cc1ccccc1Cn1c(N2CCC[C@@H](N)C2)ncc(F)c1=O [Form A, tartrate salt of 2-[2-(3-(R)-amino-piperidin-1-yl)-5-fluoro-6-oxo-6H-pyrimidin-1-ylmethyl]-benzonitrile]
- XRPD Pattern after RH stress ([1]; 58% RH stress): Form A
- XRPD Pattern after RH stress ([1]; 75% RH stress): Form A
- XRPD Pattern after RH stress ([1]; 84% RH stress): Form A
- phase change upon RH stress ([1]; various RH conditions, room temperature, several weeks): none of these samples had undergone a phase change
- solubility ([2]; organic solvent or mixture, 1,4-dioxane): < 3000 µg/mL
- solubility ([2]; organic solvent or mixture, acetone): < 4000 µg/mL
- solubility ([2]; organic solvent or mixture, acetonitrile): < 3000 µg/mL
- solubility ([2]; organic solvent or mixture, chloroform): < 4000 µg/mL
- solubility ([2]; organic solvent or mixture, dichloromethane): < 3000 µg/mL
- solubility ([2]; organic solvent or mixture, diisopropyl ether): < 3000 µg/mL
- solubility ([2]; organic solvent or mixture, dimethylformamide): ≥ 81000 µg/mL
- solubility ([2]; organic solvent or mixture, ethanol): < 3000 µg/mL
- solubility ([2]; organic solvent or mixture, ethyl acetate): < 3000 µg/mL
- solubility ([2]; organic solvent or mixture, hexafluoroisopropanol): ≥ 80000 µg/mL
- solubility ([2]; organic solvent or mixture, hexanes): < 3000 µg/mL
- solubility ([2]; organic solvent or mixture, isopropanol): < 3000 µg/mL
- solubility ([2]; organic solvent or mixture, isopropyl acetate): < 3000 µg/mL
- solubility ([2]; organic solvent or mixture, methanol): ≥ 16000 µg/mL
- solubility ([2]; organic solvent or mixture, methyl ethyl ketone): < 3000 µg/mL
- solubility ([2]; organic solvent or mixture, nitromethane): < 3000 µg/mL
- solubility ([2]; organic solvent or mixture, tetrahydrofuran): < 3000 µg/mL
- solubility ([2]; organic solvent or mixture, toluene): < 3000 µg/mL
- solubility ([2]; organic solvent or mixture, trifluoroethanol): ≥ 81000 µg/mL
- solubility ([2]; water): ≥ 41000 µg/mL
- XRPD Pattern after heating ([3]; TGA to 150° C. & recovered): Form A
- thermally stable up to ([3]; thermal analysis): about 200 °C
- relative stability of polymorphs [4]: more stable than form B, C, D, or E
- hydrate type from moisture sorption/desorption analysis [5]: variable hydrate
- solid form of post moisture sorption/desorption sample by XRPD ([5]; after 5%-95%-5% RH cycle): form A
- molecules of water present for every molecule of compound ([5]; at 95% RH, calculated from desorption weight change and molecular weight): approximately 1
- Weight Change ([5]; desorption, 95% RH to about 5% RH): −3.77%
- Weight Change ([5]; equilibration, initial weight to about 5% RH): −1.44%
- initial weight loss from ambient conditions to 5% RH ([5]; moisture sorption/desorption): approximately 1.4%
- weight gain between 5% and 95% RH ([5]; moisture sorption/desorption): about 4.00%
- Weight Change ([5]; sorption, 5% RH to about 95% RH): 4.00%
